The values below come from ChEMBL document CHEMBL3507680, “University of Dundee, Gates Library screen for HepG2 cell viability”.

SMILES strings stand for the structures.

The data set in a line: Human HepG2 cell viability assay in 384 well format. The format is toxicity, cell-based. Details: dose 125 nL, time 70.5 hour; cytotoxicity at 70.5 h: concentration not given beside the values. The conditions noted are these: HepG2 cells, read-out: Inhibition.
Turning to `COc1ccccc1OCCCN1CC=C(c2cnn(C)c2)CC1`, the cytotoxicity at 70.5 h was -2.62%.
To `CCCN1C[C@H]2CC[C@@H]1CN(c1nnc(C(C)C)s1)C2` belongs 27.1%; to `CCc1noc(CN(CC)C(=O)CC2C(=O)NCCN2CC=C(C)C)n1` (centres undefined), 1.29%.
To `COCCCN1CCN([C@@H]2c3ccccc3C3(CCNCC3)[C@H]2O)CC1` belongs 0.267%.
Then `OC1CN(Cc2ccccc2)CCN(c2ccncc2)C1` (centres undefined), with 11.5%; and `CC(C)N1CCC(CC(=O)N2CCCCC2CCn2cccn2)CC1` (centres undefined), with -10.4%; and `COc1cccc(OC)c1C(=O)N1C[C@@H](CN(C)C)[C@@H](CO)C1`, with -2.79%.
Consider `CCCc1ccc(CN2CCC3(CCC(=O)N(C)CC3)CC2)o1`, for which the cytotoxicity at 70.5 h came to 17.3%.
To `O=C1CC2(CCCC2)CC(=O)N1Cc1nc2ncccn2n1` belongs 1.37%; to `O=C1CC2(CCCC2)CC(=O)N1Cc1nccs1`, -1.44%.
To `COc1cccc(N2CCC(N3C[C@@H](NC(C)=O)[C@H](C(C)C)C3)CC2)c1` belongs -6.54%.
Then `FC(F)(F)CCc1ccnc(NC2CCOC2)n1` (centres undefined), with 27.9%; and `COC[C@@H]1CCCN1C(=O)c1cc(-c2cccc(OC)c2)n[nH]1`, with -2.07%.
Turning to `CSCC[C@H](NC(C)=O)c1nc(CCc2ccccc2)n[nH]1`, the cytotoxicity at 70.5 h is -3.53%.
Consider `CCC[C@H]1CN(CCS(C)(=O)=O)C[C@@H]1NC(=O)c1cc[nH]n1`, for which the cytotoxicity at 70.5 h was -16%.
To `CCCOC(C)C(=O)NCc1cc2n(n1)CCCN(C1CCCCC1)C2` (centres undefined) belongs 0.0071%.
Then `CCn1ccnc1CN1CCC(Oc2cccc(F)c2)(C(=O)O)CC1`, with -4.69%; and `CN(CC1CCOCC1)C(C(=O)O)c1cccc(F)c1F` (centres undefined), with 0.34%; and `Cc1nc2c(c(N(C)C)n1)CCN(C(=O)CN1CCC(O)CC1)C2`, with -6.35%.
Then `CCNc1ncc(C(=O)NCc2csc(-c3cnccn3)n2)cn1`, with -10.4%; and `Cc1ccc(CC2COc3ccccc3C2)c(N)n1` (centres undefined), with 16.3%.
As to `CC(C)NS(=O)(=O)c1cc(C(=O)O)cc(-c2ccc3c(c2)OCCO3)c1`, the cytotoxicity at 70.5 h is -8.82%.
Take `CN(C)CC(C)(C)Cn1cnc(-c2ccccc2)c1-c1cccc(O)c1`: the cytotoxicity at 70.5 h is -10.8%.
Regarding `CCCn1ccnc1CN1CCC(O)(CN2CCCCC2)C1` (centres undefined), the cytotoxicity at 70.5 h was -4.35%.
Then `CCc1ncc(CN2CCC(Oc3ccccc3OC)CC2)cn1`, with -0.00137%; and `CN(CCc1ncnn1C1Cc2ccccc2C1)C1CCS(=O)(=O)C1` (centres undefined), with -11.8%; and `CC(C)n1ccnc1CN1CCOC(CCc2ccccc2)C1` (centres undefined), with -13.7%.
To `COc1ccc(-c2cc(CN)ccc2F)c(OC)c1OC` belongs 6.26%; to `Cc1ccccc1Oc1ncccc1CNC1CCC1`, 1.33%.
`O=C(CCCn1cnnn1)N1CCC(c2ccncc2)CC1`: the cytotoxicity at 70.5 h came out at 22.6%.
To `Cc1ccc(C2(C(=O)N3CCC(n4cc(C(C)O)nn4)CC3)CC2)cc1` (centres undefined) belongs -7.08%.
Then `Cc1ccc(N2C[C@@H](CN3CCOCC3)[C@@H](CO)C2)nn1`, with -16.8%; and `COc1cc(N2CCCC(c3nccn3Cc3ccncc3)C2)ncn1` (centres undefined), with -6.57%; and `CSCCNC(=O)c1coc(COc2ccc(F)cc2)n1`, with 7.74%.
Regarding `CCc1ccccc1OCCN(C)C(=O)CCN1CCCCO1`, the cytotoxicity at 70.5 h is -7.24%.
Then `Cc1ccnc(NCCNC(=O)c2ccccc2NCC(=O)O)c1`, with 5.62%; and `CCCc1nc(N(C)Cc2cnc(NC)nc2)c2cnn(C)c2n1`, with 8.94%; and `CCc1ccc(NC(=O)CCN2CC(n3nc(C)cc3C)C2)cc1`, with -1.14%.
To `NCCn1cc(C(=O)NCc2ccccc2Cn2cccn2)nn1` belongs -6.05%; to `N#Cc1ccccc1CN1C[C@H]2CC[C@@H]1CN(C(=O)c1cccnc1)C2`, -10.2%; to `CCC(C(=O)N(C)C)n1ccc2ncccc2c1=O` (centres undefined), -13.2%.
Turning to `CC(C)c1nc(Cn2cncn2)n(-c2ccccn2)n1`, the cytotoxicity at 70.5 h was -4.77%.
To `O=C(CCn1ccnc1)N1CC[C@@H](c2ccc3ccccc3c2)[C@H](O)C1` belongs 4.4%; to `CN1CCC(c2ncc3c(n2)CCN(C(=O)CC2C=CCC2)C3)CC1` (centres undefined), -7.45%; to `CC(=O)N1C[C@@H](c2ccsc2)[C@@H]2CN(Cc3ccccc3)CC[C@@H]21`, -10.8%.
To `CC(=O)N1C[C@@H](c2ccsc2)[C@@H]2CN(Cc3cccc(Cl)c3)CC[C@@H]21` belongs 8.95%; to `CCc1nccn1-c1cncc(C2CCCN2Cc2cccnc2)n1` (centres undefined), -5.1%; to `COc1ccccc1CC(=O)N1CC[C@@]2(CCCO2)[C@@H](OC)C1`, 25.6%.
Turning to `CCCc1cc(C(=O)N2CCOC(c3nc(-c4cccs4)no3)C2)no1` (centres undefined), the cytotoxicity at 70.5 h came to 1.76%.
To `Cc1nccn1-c1cccc(C2CCCN2S(=O)(=O)c2cn(C)cn2)n1` (centres undefined) belongs 31.6%.
To `Cc1nc(CN2CCCC(NCc3cccc4ccccc34)C2)no1` (centres undefined) belongs 27.7%; to `Cc1nc(C)n(C2CCCN(C(=O)CCOC(C)C)C2)n1` (centres undefined), 10.2%; to `COc1c(C2CCCN2C(=O)c2scnc2C)c(C)nn1C` (centres undefined), -10.9%.
Regarding `Cc1nc(C)n(C2CCCN(C(=O)COc3cccc(C#N)c3)C2)n1` (centres undefined), the cytotoxicity at 70.5 h is -20.2%.
Regarding `CC(C)c1nc(C2CCCN2Cc2ccncc2Cl)no1` (centres undefined), the cytotoxicity at 70.5 h was -11.2%.
To `Cc1nc(CN2CCCC(NCc3ccc(Cl)s3)C2)no1` (centres undefined) belongs -13%.
Take `COc1c(C2CCCN2C(=O)c2cnc(C)cn2)c(C)nn1C` (centres undefined): the cytotoxicity at 70.5 h was found to be 10.6%.
To `Cc1cccc(C(=O)NCc2ccc(CS(N)(=O)=O)cc2)n1` belongs -16.5%.
To `CN(C)C(=O)C1CCN(Cn2nc(-c3ccc(F)cc3)oc2=O)CC1` belongs -5.92%; to `CNC(=O)COc1cccc(CNC(=O)c2c(C)noc2C(C)C)c1`, -13.2%; to `O=c1oc(-c2ccc(F)cc2)nn1CN1CCN(CC2CC2)CC1`, -21.3%.
Then `Cc1cccc(-c2nc(C)nn2CC(=O)NC(C)C)c1`, with 18.6%; and `CC1CN(Cc2cnn(C)c2)CCN1c1ccc2nncn2n1` (centres undefined), with -14.4%; and `Cc1nnc2n1CCN(C(=O)c1cc3cc(F)ccc3[nH]1)C2`, with -12.8%.
As to `Cc1nc(CN2CCCC(NCc3csc(C(C)(C)C)n3)C2)no1` (centres undefined), the cytotoxicity at 70.5 h was -6.65%.
To `CC(C)c1nnc2n1CCN(C(=O)c1cc3cc(F)ccc3[nH]1)C2` belongs -16.2%.
Then `CN1CCN(C2CCN(CCOc3cccc(F)c3)CC2)C1=O`, with -13%; and `CCc1nc(CC(=O)N2CCCC2c2c(C)nn(C)c2OC)cs1` (centres undefined), with -8.39%.
To `Cc1ccc(OCC(=O)N2CCCC(n3nc(C)nc3C)C2)cc1` (centres undefined) belongs -8.6%.
Turning to `Cc1ccc(OCCC(=O)N2CCCC(n3nc(C)nc3C)C2)cc1` (centres undefined), the cytotoxicity at 70.5 h is -11.7%.
To `COc1c(C2CCCN2C(=O)c2cccc(C)n2)c(C)nn1C` (centres undefined) belongs -16.2%; to `CC1CN(Cc2cccnc2)CCN1c1ccc2nncn2n1` (centres undefined), -8.86%.
Consider `O=C(Cc1ccccc1)NCCNCc1cccc(O)c1`, for which the cytotoxicity at 70.5 h was found to be 36.6%.
Then `CN(C)C(=O)c1cccc(CN2CCOC(Cn3cncn3)C2)c1` (centres undefined), with -4.81%.
As to `COc1ccc(-n2ccc(C(=O)NCCN3CCCC(C)C3)n2)cc1` (centres undefined), the cytotoxicity at 70.5 h was found to be 23.3%.
To `c1cnn(CC2CCCN2Cc2noc(C3CC3)n2)c1` (centres undefined) belongs -3.73%; to `CCc1csc(C2CCCN(C(=O)c3ccccn3)C2)n1` (centres undefined), -7.06%; to `c1ccc(Oc2ccc(CNCC3CNc4ccnn4C3)cn2)cc1` (centres undefined), -9.82%.
To `Clc1cccc(-c2nc(CNC3CCc4ncnn4C3)co2)c1` (centres undefined) belongs 11.6%; to `O=C1CN(c2ccc(CNC(=O)NCc3ccoc3)cc2)CCN1`, -11.8%; to `CC(C)C(NC(=O)NCCNc1ncccn1)c1cccs1` (centres undefined), -6.23%.
To `O=C(NCCN1CCCCC1)c1ccn(-c2ccccc2)n1` belongs 24.7%; to `O=C(Cc1cccc(F)c1)NCCCNC(=O)c1cccc(O)c1`, -2.95%.
On to `COc1ccc(OC2CCN(Cc3ccn(C)c(=O)c3)CC2)cc1`, for which the cytotoxicity at 70.5 h amounted to 0.479%.
On to `COc1ccccc1CNC(=O)C[S+]([O-])Cc1cc(C)on1` (centres undefined), for which the cytotoxicity at 70.5 h is -3.68%.
Then `Clc1ccccc1-c1nc(CNC2CCc3ncnn3C2)co1` (centres undefined), with -2.04%.
For the compound `CCc1csc(C2CCCN(C(=O)c3ncccn3)C2)n1` (centres undefined), the cytotoxicity at 70.5 h was -0.847%.
In the case of `CC(C(=O)NCc1ccc(N2CCNC(=O)C2)cc1)c1cccs1` (centres undefined), the cytotoxicity at 70.5 h is -4.67%.
With `COC(=O)c1cccc(S(=O)(=O)NC(=O)COC2CCCCC2)c1`, the cytotoxicity at 70.5 h is -3.15%.
In the case of `COc1ccc(S(=O)(=O)NC(=O)COC2CCCC2)cc1`, the cytotoxicity at 70.5 h was -5.57%.
Then `Cc1nc(C)n(CC2CCCN(Cc3ncc(C(C)(C)C)o3)C2)n1` (centres undefined), with 23%; and `CCn1cnnc1CNC(=O)N1CCN(c2nccs2)CC1`, with -3.76%; and `CC(NC(=O)CCn1cccn1)c1ccc2c(c1)OCCO2` (centres undefined), with 14.2%.
`CCn1cnnc1CNC(=O)N1CCN(c2ccccc2Cl)CC1`: the cytotoxicity at 70.5 h is -3.38%.
Then `CCn1cnnc1CNC(=O)N1CCN(c2ccc(OC)cc2)CC1`, with -11.7%.
To `Cc1cc(C(=O)N2CCCC2)ccc1NCc1nc(CC(C)C)no1` belongs -9.73%; to `CCn1cnnc1CNC(=O)N1CCN(c2ccccc2O)CC1`, -13.9%.
Regarding `Cc1ccccc1-c1noc(CN2CCC(N3CCNC3=O)CC2)n1`, the cytotoxicity at 70.5 h was 40.4%.
Turning to `COc1ncc(C2(O)CCN(Cc3c(F)cccc3F)CC2)c(OC)n1`, the cytotoxicity at 70.5 h came out at 31.4%.
